Laboratory results taken from publication PMC7837508, “Interactions of the Diazabicyclooctane Serine β-Lactamase Inhibitor ETX1317 with Target Enzymes” (ACS Infectious Diseases, 2020).
Where two headings read alike, the source gives them in different places.

Assays:
[1] = molecular target: T1, OXA-48 (Klebsiella pneumoniae, UniProt Q6XEC0); assay: Partition ratio measurement; assay type: biochemical; conditions: OXA-48, incubation 1 h, ambient temperature
T1 construct: made in house
Procedure: (§1) Partition ratios were measured as described previously[10] at ambient temperature in Buffer A. ETX1317 was freshly dissolved in assay buffer and an arithmetic dilution series was prepared from 0 to 12 μM in 1.2 μM steps. Each of these was mixed with an equal volume of 6 μM β-lactamase. At each time point, the mixtures were diluted in buffer to 2-fold the final reaction concentration of enzyme. Then, 22.5 μL of enzyme + inhibitor solutions were mixed with 22.5 μL of 200 μM nitrocefin substrate in a clear polystyrene 384-well assay plate. The absorbance at 490 nm was monitored at 10-s intervals for 10 min with a Spectramax Plus 384 plate reader. The slopes of the progress curves (ΔA490/s) were calculated. The percent of the control value for each inhibitor concentration was plotted versus the inhibitor:enzyme molar ratio. A best-fit line was calculated with a fixed point at 100% on the y-axis.

[2] = molecular target: T2, CTX-M-15 (Escherichia coli, UniProt Q9EXV5); assay: Partition ratio measurement; assay type: biochemical; conditions: CTX-M-15, incubation 1 h, ambient temperature
T2 construct: made in house
Procedure: as §1

[3] = molecular target: T3, SHV-5 (Klebsiella pneumoniae, UniProt P0A3M1); assay: Partition ratio measurement; assay type: biochemical; conditions: SHV-5, incubation 1 h, ambient temperature
T3 construct: made in house
Procedure: as §1

[4] = molecular target: T4, AmpC (Pseudomonas aeruginosa, UniProt P24735); assay: Partition ratio measurement; assay type: biochemical; conditions: incubation 1 h, ambient temperature
T4 construct: made in house
Procedure: as §1

[5] = molecular target: T5, KPC-2 (Klebsiella pneumoniae, UniProt Q9F663); assay: Partition ratio measurement; assay type: biochemical
T5 construct: made in house
Procedure: as §1

[6] = molecular target: OXA-24; conditions: OXA-24, ambient temperature, pH 7.0, nitrocefin; ref 6 and 7; cited from earlier work
[7] = molecular target: T6, P. aeruginosa AmpC (Pseudomonas aeruginosa, UniProt P24735); conditions: ambient temperature, pH 7.0, nitrocefin, ref 6 and 7; cited from earlier work
T6 construct: made in house

[8] = test system: CTX-M-14; parameters: method as in PMID 32658473; conditions: higher than that of avibactam; cited from earlier work
[9] = molecular target: T1, OXA-48; assay: β-lactamase acylation exchange (intact protein mass spectrometry); assay type: binding; conditions: donor OXA-48, acceptor CTX-M-15, 19 h, ambient temperature, no added bicarbonate
Procedure: (§2) β-Lactamase acylation exchange experiments and intact protein mass spectrometry were performed as described previously.[10] OXA-48 was used as the acceptor enzyme in most cases because of the stability of the ETX1317–OXA-48 complex. When OXA-48 was the donor enzyme, CTX-M-15 was used as the acceptor. Each β-lactamase (5 μM) was incubated with or without 25 μM ETX1317 in a 60 μL volume of 50 mM HEPES (pH 7.0) buffer for 1 h at ambient temperature. The samples were diluted to 400 μL with ice-cold buffer and then concentrated to ∼40 μL with Microcon YM-10 centrifugal ultrafilters (Millipore-Sigma, Burlington, MA) at 14 000g for 45 min at 4 °C. The retentates were rediluted to 400 μL with ice-cold buffer and reconcentrated as before. This was repeated a further time, leaving no significant amount of unbound ETX1317. The sample volumes were restored to 60 μL with ice-cold buffer and the samples were divided into two equal aliquots of 30 μL. Buffer (6 μL) was added to one aliquot, and 6 μL of acceptor enzyme was added to the other. The final acceptor enzyme concentrations were 5 μM. Samples were incubated at ambient temperature for the times indicated and then stored at −80 °C until analysis. LC-MS analysis was performed on a Triple TOF5600+ (AB Sciex, Redwood City, CA) equipped with a DuoSpray Ion Source and a Shimadzu LC 20-AD HPLC system (Shimadzu Scientific Instruments, Marlborough, MA). A 2 μL portion of each sample was injected onto a Poroshell 300SB-C8 75 × 2.1 mm, 5 μm column (Agilent) at 30 °C with a gradient of acetonitrile (5–95%) in 0.1% formic acid for 3 min followed by a 1 min hold at 95% before returning to 5% acetonitrile at a flow rate of 0.4 mL/min. The mass spectrometer was operated in positive ion and intact protein mode with source temperature of 450 °C. LC-MS data were acquired in the TOF MS mode for m/z+ from 600 to 2000. Nebulizer gas (GS1), heater gas (GS2), and curtain gas were set at 60, 70, and 30 psi, respectively. Ion spray voltage was 5500 V. Declustering voltage was 100 V, and collision energy was 10 V. Peak masses for protein species were determined following spectrum deconvolution using PeakView version 2.2 software. Mass accuracy of intact proteins is ±1 Da.

[10] = molecular target: T7, TEM-1 (Escherichia coli, UniProt P62593); assay: as above; assay type: binding; conditions: donor TEM-1, acceptor OXA-48, ambient temperature
T7 construct: made in house
Procedure: as §2

[11] = molecular target: T2, CTX-M-15; assay: as above; assay type: binding; conditions: donor CTX-M-15, acceptor OXA-48, ambient temperature
Procedure: as §2

[12] = molecular target: T8, Enterobacter cloacae P99 (Enterobacter cloacae, UniProt P05364); assay: as above; assay type: binding; conditions: donor P99, acceptor OXA-48, ambient temperature
T8 construct: made in house
Procedure: as §2

[13] = molecular target: T3, SHV-5; assay: as above; assay type: binding; conditions: donor SHV-5, acceptor OXA-48, ambient temperature
Procedure: as §2

[14] = molecular target: T5, KPC-2; assay: as above; assay type: binding; conditions: donor KPC-2, acceptor OXA-48, 19 h, ambient temperature
Procedure: as §2

[15] = molecular target: T9, Pseudomonas aeruginosa AmpC (Pseudomonas aeruginosa, UniProt P24735); assay: as above; assay type: binding; conditions: acceptor OXA-48, 1, 2 and 17 h, ambient temperature
T9 construct: made in house
Procedure: as §2

[16] = molecular target: T2, CTX-M-15; conditions: CTX-M-15, ambient temperature, pH 7.0, nitrocefin; ref 6 and 7; cited from earlier work
[17] = molecular target: T7, TEM-1; parameters: method as in PMID 28665414, PMID 32658473; conditions: ref 6 and 7, cited from earlier work; for kinact/Ki: TEM-1, ambient temperature, pH 7.0, nitrocefin
[18] = molecular target: T10, E. cloacae P99 (Enterobacter cloacae, UniProt P05364); conditions: cited from earlier work
T10 construct: made in house

[19] = molecular target: T5, KPC-2; conditions: KPC-2, ambient temperature, pH 7.0, nitrocefin; ref 6 and 7; cited from earlier work
[20] = molecular target: T6, P. aeruginosa AmpC; assay: koff measurement by jump dilution; assay type: biochemical; conditions: ambient temperature
Procedure: (§3) Dissociation rate constants (koff) were measured by the jump-dilution method at ambient temperature as described previously.[10] Enzymes at 500 000-fold the final β-lactamase assay concentration (see above) were incubated for 15–20 min with 3-fold molar excess of freshly dissolved ETX1317 at ambient temperature in Buffer A. The mixtures were then diluted 250 000-fold with Buffer A, and 22.5 μL of the dilutions was mixed with 22.5 μL of 200 μM nitrocefin in Buffer A. The absorbance at 490 nm was monitored at 30 s intervals for 2 h at ambient temperature with a Spectramax Plus 384 plate reader. Progress curves were fit by nonlinear regression using XLfit (ID Business Solutions, Boston, MA) to the following equation: [drawing 2] where P is A490, C is the initial A490, V0 is the initial rate of absorbance increase, Vs is the final rate of absorbance increase, t is time in seconds, and k is the first order rate constant for enzyme reactivation due to inhibitor dissociation, koff.

[21] = molecular target: T7, TEM-1; assay: koff measurement by jump dilution; assay type: biochemical; conditions: TEM-1, jump dilution, ambient temperature
Procedure: as §3

[22] = molecular target: T2, CTX-M-15; assay: koff measurement by jump dilution; assay type: biochemical; conditions: CTX-M-15, jump dilution, ambient temperature
Procedure: as §3

[23] = molecular target: T3, SHV-5; assay: koff measurement by jump dilution; assay type: biochemical; conditions: SHV-5, jump dilution, ambient temperature
Procedure: as §3

[24] = molecular target: T5, KPC-2; assay: koff measurement by jump dilution; assay type: biochemical; conditions: KPC-2, jump dilution, ambient temperature
Procedure: as §3

[25] = molecular target: T10, E. cloacae P99; assay: koff measurement by jump dilution; assay type: biochemical; conditions: ambient temperature
Procedure: as §3

[26] = molecular target: T1, OXA-48; conditions: OXA-48, ambient temperature, pH 7.0, nitrocefin; ref 6 and 7; cited from earlier work
[27] = molecular target: OXA-10; conditions: OXA-10, ambient temperature, pH 7.0, nitrocefin; ref 6 and 7; cited from earlier work
[28] = molecular target: T3, SHV-5; conditions: SHV-5, ambient temperature, pH 7.0, nitrocefin; ref 6 and 7; cited from earlier work
[29] = molecular target: T2, CTX-M-15; conditions: cited from earlier work
[30] = molecular target: T6, P. aeruginosa AmpC; conditions: cited from earlier work
[31] = molecular target: T3, SHV-5; parameters: method as in PMID 28835096; conditions: cited from earlier work
[32] = molecular target: OXA-23; conditions: OXA-23, ambient temperature, pH 7.0, nitrocefin; ref 6 and 7; cited from earlier work
[33] = molecular target: T10, E. cloacae P99; conditions: cited from earlier work; remark: listed apart in the source
[34] = molecular target: T7, TEM-1; conditions: cited from earlier work
[35] = molecular target: T1, OXA-48; conditions: OXA-48, 37 °C, discontinuous jump dilution method covering 6 h; cited from earlier work
[36] = molecular target: T5, KPC-2; conditions: cited from earlier work
[37] = E. cloacae P99, ambient temperature, pH 7.0, nitrocefin, ref 6 and 7

T7 sequence (P62593 24-286 limits assumed): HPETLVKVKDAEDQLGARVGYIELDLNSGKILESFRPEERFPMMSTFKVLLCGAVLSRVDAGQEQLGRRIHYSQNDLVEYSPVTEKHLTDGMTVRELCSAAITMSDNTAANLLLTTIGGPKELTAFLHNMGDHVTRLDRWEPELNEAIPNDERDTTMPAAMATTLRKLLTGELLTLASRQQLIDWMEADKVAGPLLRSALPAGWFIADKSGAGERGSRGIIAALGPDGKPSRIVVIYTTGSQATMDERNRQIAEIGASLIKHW
T10 sequence (P05364 21-381): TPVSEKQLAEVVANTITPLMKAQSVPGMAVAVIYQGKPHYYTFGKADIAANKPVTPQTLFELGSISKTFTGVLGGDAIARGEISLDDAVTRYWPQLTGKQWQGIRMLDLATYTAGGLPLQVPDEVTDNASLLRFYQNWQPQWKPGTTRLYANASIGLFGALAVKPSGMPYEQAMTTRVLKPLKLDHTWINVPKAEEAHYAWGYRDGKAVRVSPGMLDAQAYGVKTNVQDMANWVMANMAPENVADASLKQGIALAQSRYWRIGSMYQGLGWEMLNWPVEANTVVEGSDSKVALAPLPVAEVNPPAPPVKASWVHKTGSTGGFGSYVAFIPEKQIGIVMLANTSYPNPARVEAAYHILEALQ
T6 sequence (P24735 27-397): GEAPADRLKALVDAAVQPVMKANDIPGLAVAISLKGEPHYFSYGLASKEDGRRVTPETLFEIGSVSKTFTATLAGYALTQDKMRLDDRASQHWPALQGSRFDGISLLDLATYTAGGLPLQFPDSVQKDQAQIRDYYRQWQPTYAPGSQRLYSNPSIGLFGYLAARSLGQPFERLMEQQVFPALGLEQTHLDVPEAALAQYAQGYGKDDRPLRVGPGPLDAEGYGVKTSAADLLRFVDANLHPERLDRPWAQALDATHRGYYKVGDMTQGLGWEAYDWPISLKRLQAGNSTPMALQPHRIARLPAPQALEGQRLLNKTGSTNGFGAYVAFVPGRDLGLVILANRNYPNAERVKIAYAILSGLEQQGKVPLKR
T1 sequence (Q6XEC0 23-265, looked up, species assumed): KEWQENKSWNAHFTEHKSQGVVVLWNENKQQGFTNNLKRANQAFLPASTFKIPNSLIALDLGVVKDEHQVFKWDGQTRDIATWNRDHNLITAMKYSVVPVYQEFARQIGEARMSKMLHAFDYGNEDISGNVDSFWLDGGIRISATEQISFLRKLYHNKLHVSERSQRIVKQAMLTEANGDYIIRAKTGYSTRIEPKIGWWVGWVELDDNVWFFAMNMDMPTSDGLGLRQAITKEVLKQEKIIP
T5 sequence (Q9F663 25-293, looked up, species assumed): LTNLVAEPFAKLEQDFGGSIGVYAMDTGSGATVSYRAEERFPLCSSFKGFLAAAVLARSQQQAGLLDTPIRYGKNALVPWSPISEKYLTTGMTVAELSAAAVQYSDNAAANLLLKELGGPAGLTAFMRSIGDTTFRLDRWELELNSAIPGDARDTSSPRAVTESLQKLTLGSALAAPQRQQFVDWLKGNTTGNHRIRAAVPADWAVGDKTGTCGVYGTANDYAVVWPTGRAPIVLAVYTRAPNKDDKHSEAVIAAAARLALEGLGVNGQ
T3 sequence (P0A3M1 22-286, species assumed): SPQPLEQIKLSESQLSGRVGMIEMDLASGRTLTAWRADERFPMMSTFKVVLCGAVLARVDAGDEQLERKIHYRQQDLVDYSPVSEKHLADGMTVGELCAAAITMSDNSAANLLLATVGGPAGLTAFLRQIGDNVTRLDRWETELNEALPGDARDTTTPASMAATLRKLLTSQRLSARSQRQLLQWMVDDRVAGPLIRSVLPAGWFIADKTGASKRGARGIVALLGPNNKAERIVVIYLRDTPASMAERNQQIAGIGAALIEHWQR
T2 sequence (Q9EXV5 29-291, species assumed): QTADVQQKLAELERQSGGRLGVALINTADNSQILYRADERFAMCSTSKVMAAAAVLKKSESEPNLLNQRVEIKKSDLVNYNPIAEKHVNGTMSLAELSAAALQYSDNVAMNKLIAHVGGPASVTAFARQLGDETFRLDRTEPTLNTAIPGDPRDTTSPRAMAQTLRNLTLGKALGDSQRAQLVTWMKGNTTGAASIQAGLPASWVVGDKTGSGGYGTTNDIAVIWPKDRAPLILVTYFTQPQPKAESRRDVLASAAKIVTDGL
T8 sequence (P05364 21-381): as the sequence (P05364 21-381) above
T9 sequence (P24735 27-397): as the sequence (P24735 27-397) above
T4 sequence (P24735 27-397): as above

CC1=C[C@@H](C(N)=O)N2C[C@@H]1N(O[C@H](F)C(=O)O)C2=O [ETX1317]
partition ratio [1]: 1.1 | partition ratio [2]: 0.7 | partition ratio [3]: 0.9 | partition ratio [4]: 1.0 | partition ratio ([5]; KPC-2, 15 min incubation (not shown)): 1.1 | partition ratio ([5]; KPC-2, incubation of enzyme and inhibitor 3 h, ambient temperature): 1.1 | kinact/Ki [6]: 4.6 (±0.2) × 10^3 M^–1 s^–1 | kinact/Ki [7]: 1.20 (±0.04) × 10^4 M^–1 s^–1 | potency of CTX-M-14 inhibition relative to avibactam [8]: about 10 fold | acylation exchange (recyclization and dissociation of intact inhibitor) from donor to acceptor enzyme [9]: lack of acylation exchange | acylation exchange (recyclization and dissociation of intact inhibitor) from donor to acceptor enzyme [10]: observed | acylation exchange (recyclization and dissociation of intact inhibitor) from donor to acceptor enzyme [11]: observed | acylation exchange (recyclization and dissociation of intact inhibitor) from donor to acceptor enzyme [12]: observed | acylation exchange (recyclization and dissociation of intact inhibitor) from donor to acceptor enzyme [13]: observed | acylation exchange (recyclization and dissociation of intact inhibitor) from donor to acceptor enzyme [14]: observed | acylation exchange (recyclization and dissociation of intact inhibitor) from donor to acceptor enzyme [15]: observed | kinact/Ki [16]: 4.8 (±0.4) × 10^6 M^–1 s^–1 | Ki ([17]; TEM-1, equilibrium dissociation constant, inhibition not time-dependent on 30 s time scale): 0.34 nM | kinact/Ki [18, 37]: 3.9 (±0.2) × 10^4 M^–1 s^–1 | kinact/Ki [19]: 4.9 (±0.2) × 10^4 M^–1 s^–1 | koff [20]: 0.0006 s⁻¹ | koff [21]: 0.008 s⁻¹ | koff [22]: 0.00013 s⁻¹ | koff [23]: 0.002 s⁻¹ | koff [24]: 0.00052 s⁻¹ | koff [25]: 9.2e-05 s⁻¹ | kinact/Ki [26]: 5.3 (±0.2) × 10^4 M^–1 s^–1

NC(=O)[C@@H]1CC[C@@H]2CN1C(=O)N2OS(=O)(=O)O [avibactam]
kinact/Ki [6]: 80 M^–1 s^–1 | kinact/Ki [7]: 3 × 10^3 M^–1 s^–1 | kinact/Ki [27]: 70 M^–1 s^–1 | kinact/Ki [16]: 8 × 10^5 M^–1 s^–1 | kinact/Ki [17]: 4 × 10^5 M^–1 s^–1 | kinact/Ki ([18]; pH 7): 8 × 10^3 M^–1 s^–1 | kinact/Ki [19]: 6 × 10^3 M^–1 s^–1 | kinact/Ki [28]: 1 × 10^5 M^–1 s^–1 | kinact/Ki [26]: 5 × 10^3 M^–1 s^–1

CC1=C[C@@H]2CN(C(=O)N2OS(=O)(=O)O)[C@@H]1C(N)=O [durlobactam]
koff [29]: 2.2 (±0.5) × 10^–4 s^–1 | kinact/Ki [6]: 9 (±2) × 10^3 M^–1 s^–1 | kinact/Ki [7]: 9 (±5) × 10^5 M^–1 s^–1 | kinact/Ki [27]: 9 (±2) × 10^3 M^–1 s^–1 | koff [30]: 4 (±1) × 10^–3 s^–1 | kinact/Ki [16]: 7 (±2) × 10^6 M^–1 s^–1 | kinact/Ki [17]: 1.4 (±0.6) × 10^7 M^–1 s^–1 | koff [31]: 5.5 (±0.3) × 10^–4 s^–1 | kinact/Ki [18, 37]: 2.3 (±0.4) × 10^6 M^–1 s^–1 | kinact/Ki [32]: 5.1 (±0.2) × 10^3 M^–1 s^–1 | koff [33]: 3.4 (±0.5) × 10^–4 s^–1 | koff [34]: 1.4 (±0.2) × 10^–3 s^–1 | koff [35]: 2.5 (±0.3) × 10^–5 s^–1 | kinact/Ki [19]: 9.3 (±0.6) × 10^5 M^–1 s^–1 | kinact/Ki [28]: 6.4 (±0.5) × 10^6 M^–1 s^–1 | kinact/Ki [26]: 8 (±2) × 10^5 M^–1 s^–1 | koff [36]: 1.0 (±0.1) × 10^–3 s^–1
